From patent US8703107B2, “Cosmetic composition including leucodopachrome derivative” (Chanel Parfums Beaute, priority 2009, dated 2014)

Test system: Hyperpigmented melanocytes derived from normal neonatal prepuce
Test: Effect on melanin synthesis in cultured hyperpigmented melanocytes (melanin content read at 490 nm)
Type: cell-based
Method: 3 solutions of methyl ester of triacetyl leucodopachrome were prepared, respectively at concentrations of 0.0025%, 0.00025% and 0.000025% by weight in DMSO.
The effect of the methyl ester of (S)-triacetyl leucodopachrome on melanin synthesis was evaluated according to the following procedure.
Hyperpigmented melanocytes derived from normal neonatal prepuce of separate donors were bought from the company Cascade Biologics (Portland, Oreg., United States). The cells were seeded in 6-well plates and cultured in a growth medium of the melanocytes (medium topped up with bovine pituitary extract, fetal bovine serum, bovine insulin, transferrin, conventional fibroblast growth factor, hydrocortisone, heparin and phorbol 12-myristate 13-acetate).
In a second stage, the cells were incubated with a growth medium (MGM, Clonetics) containing the active products, in three copies, for 5 days. The medium was withdrawn and the cells washed with PBS (Gibco/Invitrogen). The cells were lyzed and the melanin solubilized in NaOH.
The supernatant was centrifuged. After centrifugation, the clear lysate was transferred to a new plate and the melanin content was measured on an ELISA reader at 490 nm. The pellets were visualized on an Alphalnnotech imager.

COC(=O)[C@@H]1Cc2cc(OC(C)=O)c(OC(C)=O)cc2N1C(C)=O [methyl ester of (S)-triacetyl leucodopachrome]
inhibition of the melanin synthesis (in words) (0.000025% to 0.0025% solutions): increases with the concentration | inhibition at 2.5e-05 % strength (Melanocyte, 120 h, 0.000025% by weight solution in DMSO, 5 days incubation, melanin at 490 nm): 5.49% | inhibition at 0.00025 % strength (Melanocyte, 120 h, 0.00025% by weight solution in DMSO, 5 days incubation, melanin at 490 nm): 6.7% | inhibition at 0.0025 % strength (Melanocyte, 120 h, 0.0025% by weight solution in DMSO, 5 days incubation, melanin at 490 nm): 32.8%
